Where “and” joins values, the source holds several entries; their conditions need not be identical. Identical values can stand only once. Like-named read-outs stand apart in the source and are kept apart here.
Tests used:
aromatase = target: T1, aromatase (Homo sapiens, UniProt P11511); details: Yang et al. 2018; Grace et al. 2019; cited from earlier work
T1 construct: endogenous in cells; host or cells: H295R adreno-cortical carcinoma cells; healthy human subjects in vivo
T1 sequence (P11511 1-503): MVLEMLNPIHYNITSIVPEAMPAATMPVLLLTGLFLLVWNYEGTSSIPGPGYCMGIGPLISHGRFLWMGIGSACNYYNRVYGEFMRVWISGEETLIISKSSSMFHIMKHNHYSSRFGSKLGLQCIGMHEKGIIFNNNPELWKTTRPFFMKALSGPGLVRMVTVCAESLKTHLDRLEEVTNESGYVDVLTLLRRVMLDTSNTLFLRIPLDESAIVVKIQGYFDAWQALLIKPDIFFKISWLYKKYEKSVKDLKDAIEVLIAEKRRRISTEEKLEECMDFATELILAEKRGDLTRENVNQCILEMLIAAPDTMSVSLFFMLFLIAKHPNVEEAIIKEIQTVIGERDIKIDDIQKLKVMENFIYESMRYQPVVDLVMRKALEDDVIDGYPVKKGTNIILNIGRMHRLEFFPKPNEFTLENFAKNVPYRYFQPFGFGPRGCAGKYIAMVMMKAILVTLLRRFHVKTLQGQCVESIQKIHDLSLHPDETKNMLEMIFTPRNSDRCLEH

[1] = Phase 1: hematologic and hemolytic laboratory parameters in SCD patients; format: in vivo, human; details: for Hemoglobin / Indirect Bilirubin / Lactate Dehydrogenase, U/L / Reticulocytes, %: SCD 300 mg Compound 1/Placebo (blinded) once daily, individual Pt 1-3
Excerpt: Laboratory changes relative to pretreatment for each pt in the MD cohort as of Jul. In 2 of 3 SCD MD-1 pts treated with Compound 1/placebo (currently blinded), Hb increased by >1 g/dL, % reticulocytes decreased, and markers of hemolysis were improved after 14 days of treatment (compared to pre-treatment levels). Hematologic parameters returned to pre-treatment levels 4 to 7 days post-treatment (data not shown) without clinical AEs.
A median 1.2 g/dL Hb increase (range 0, 2.3) and a median 60% reticulocyte decrease (range −39%, −81%) over baseline were observed. The onset of the increase in Hb was rapid and continued to increase in most patients through the end of treatment, indicating the potential for additional improvement with extended dosing. […] A median 36% LDH decrease (range +18%, −57%) and a median 35% bilirubin decrease (range −7%, −63%) over baseline were observed, which is consistent with the hypothesis that Compound 1 improves RBC survival and reduces RBC turnover.

[2] = cited from earlier work
[3] = intravenous (IV) bolus dose; cited from earlier work
PKR (wt) = PKR (wt) (Homo sapiens, UniProt P30613); assay: Luminescence Assay (Kinase Glo Plus) of PKR activation; format: biochemical
PKR (wt), sequence (P30613 whole entry): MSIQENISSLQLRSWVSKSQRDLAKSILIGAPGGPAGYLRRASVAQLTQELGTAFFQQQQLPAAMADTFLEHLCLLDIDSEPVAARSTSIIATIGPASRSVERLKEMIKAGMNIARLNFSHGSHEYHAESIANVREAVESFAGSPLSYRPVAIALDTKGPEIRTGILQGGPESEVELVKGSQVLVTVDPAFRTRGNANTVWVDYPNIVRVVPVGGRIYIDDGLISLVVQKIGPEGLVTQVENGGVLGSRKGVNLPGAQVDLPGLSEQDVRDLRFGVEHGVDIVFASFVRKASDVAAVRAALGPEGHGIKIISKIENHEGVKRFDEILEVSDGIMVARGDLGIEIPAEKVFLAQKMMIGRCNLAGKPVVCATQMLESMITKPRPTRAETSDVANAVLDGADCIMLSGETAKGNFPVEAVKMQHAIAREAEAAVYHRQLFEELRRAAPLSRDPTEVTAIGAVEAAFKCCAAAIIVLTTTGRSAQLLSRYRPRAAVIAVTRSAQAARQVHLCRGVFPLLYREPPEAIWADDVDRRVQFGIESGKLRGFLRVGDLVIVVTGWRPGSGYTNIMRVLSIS
Description: (§1) PKR Activating Compounds can be identified with the biochemical Luminescence Assay of Example 2. The PKR activating activity of a series of chemical compounds was evaluated using the Luminescence Assay below, including compounds designated Compound 1, and Compound 2, or mixtures thereof.
(§2) For each tested compound, the ability to activate PKR was determined using the following Luminescence Assay. The effect of phosphorylation of adenosine-5′-diphosphate (ADP) by PKR is determined by the Kinase Glo Plus Assay (Promega) in the presence or absence of FBP (D-fructose-1,6-diphosphate; BOC Sciences, CAS: 81028-91-3) as follows. Unless otherwise indicated, all reagents are purchased from Sigma-Aldrich. All reagents are prepared in buffer containing 50 mM Tris-HCl, 100 mM KCl, 5 mM MgCl2, and 0.01% Triton X100, 0.03% BSA, and 1 mM DTT. Enzyme and PEP (phosphoenolpyruvate) are added at 2× to all wells of an assay-ready plate containing serial dilutions of test compounds or DMSO vehicle. Final enzyme concentrations for PKR (wt), PKR(R510Q), and PKR (G332S) are 0.8 nM, 0.8 nM, and 10 nM respectively. Final PEP concentration is 100 μM. The Enzyme/PEP mixture is incubated with compounds for 30 minutes at RT before the assay is initiated with the addition of 2×ADP and KinaseGloPlus. Final concentration of ADP is 100 μM. […] For assays containing FBP, that reagent is added at 30 μM upon reaction initiation. Reactions are allowed to progress for 45 minutes at RT until luminescence is recorded by the BMG PHERAstar FS Multilabel Reader. The compound is tested in triplicate at concentrations ranging from 42.5 μM to 2.2 nM in 0.83% DMSO. AC50 measurements were obtained by the standard four parameter fit algorithm of ActivityBase XE Runner (max, min, slope and AC50). The AC50 value for a compound is the concentration (μM) at which the activity along the four parameter logistic curve fit is halfway between minimum and maximum activity.
(§3) As set forth in Table 2 below, AC50 values are defined as follows: ≤0.1 μM (+++); >0.1 μM and ≤1.0 μM (++); >1.0 μM and ≤40 μM (+); >40 μM (0).

PKR (G332S) = PKR (G332S) (Homo sapiens, UniProt P30613, G332S); assay: as above; format: biochemical; details: read-out: AC50 (PKRG332S)
PKR (G332S), sequence (P30613 whole entry G332S): as the sequence (P30613 whole entry) above, with G332S counted along it
Description: as §1, §2, §3

PKR(R510Q) = PKR(R510Q) (Homo sapiens, UniProt P30613, R510Q); assay: as above; format: biochemical; details: read-out: AC50 (PKRR510Q)
PKR(R510Q), sequence (P30613 whole entry R510Q): as the sequence (P30613 whole entry) above, with R510Q counted along it
Description: as §1, §2, §3

[4] = whole blood, relative to fasted state

Which aromatase inhibition (aromatase) does the source give for `O=C(c1ccc(NS(=O)(=O)c2cccc3cccnc23)cc1)N1CCN(CC2CC2)CC1` [AG-348] here?
The aromatase inhibition was “Aromatase inhibition has been observed”.

For `O=C([C@H](CO)c1ccccc1)N1CC2=C(C1)CN(S(=O)(=O)c1cnc3c(c1)OCCO3)C2` [Compound 1/Placebo], which “Hemoglobin” value ([1]; Day 7 (on Tx)) is on record?
Its value is 7.9 g/dL and 10.4 g/dL and 8.8 g/dL.

And the “Indirect Bilirubin” value ([1]; Day 7 (on Tx))?
Its value is 2.5 mg/dL and 0.9 mg/dL and 0.8 mg/dL.

And the “Lactate Dehydrogenase, U/L” value ([1]; Day 7 (on Tx))?
The value was 148 U/L and 257 U/L and 371 U/L.

And the “Reticulocytes, %” value ([1]; Day 7 (on Tx))?
Its value is 12.8% and 6.8% and 5.8%.

What about the “Hemoglobin” value ([1]; Day 14/15 (EOT)) of the same molecule?
The value was 7.5 g/dL and 11.1 g/dL and 9.2 g/dL.

What about the “Indirect Bilirubin” value ([1]; Day 14/15 (EOT)) of the same molecule?
Its value is 3.0 mg/dL and 0.8 mg/dL and 1.0 mg/dL.

And the “Lactate Dehydrogenase, U/L” value ([1]; Day 14/15 (EOT))?
Its value is 192 U/L and 226 U/L and 279 U/L.

And the “Reticulocytes, %” value ([1]; Day 14/15 (EOT))?
Its value is 11.4% and 0.8% and 4.2%.

What about the “patients with Hb increased by >1 g/dL” value ([1]; SCD MD-1, Compound 1/placebo (currently blinded), 14 days) of the same molecule?
The value was 2 of 3.

Which results are given for `CC(C)n1nccc1-c1ncccc1COc1cccc(O)c1C=O` [voxelotor, 2-hydroxy-6-((2-(1-isopropyl-1H-pyrazol-5-yl)pyridin-3-yl)methoxy)benzaldehyde]?
increase in AUC with high-fat, high-calorie meal ([2]; plasma): 42%; increase in Cmax with high-fat, high-calorie meal ([2]; plasma): 95%; steady state AUC higher in HbSC vs HbSS genotype patients ([2]; plasma): 23%; steady state Cmax higher in HbSC vs HbSS genotype patients ([2]; plasma): 15%; increase in AUC with high-fat, high-calorie meal [2, 4]: 42%; increase in Cmax with high-fat, high-calorie meal [2, 4]: 45%; steady state AUC higher in HbSC vs HbSS genotype patients ([2]; whole blood): 50%; steady state Cmax higher in HbSC vs HbSS genotype patients ([2]; whole blood): 45%

With `NC(=O)CC[C@H](N)C(=O)O` [L-glutamine, (S)-2-aminoglutaramic acid] as the molecule, how does the volume of distribution [3] read?
The volume of distribution was “approximately 200 mL/kg”.

What does the source list for `O=C([C@@H](CO)c1ccccc1)N1CC2=C(C1)CN(S(=O)(=O)c1cnc3c(c1)OCCO3)C2` (single isomer, unassigned) [Compound 2]?
AC50 (PKR (wt)): 1 to 40 µM; AC50 (PKR (G332S)): 1 to 40 µM; AC50 (PKR(R510Q)): 1 to 40 µM
